For 7 compounds, IC50 results are on record in patent US8445677B2, “Substituted pyrimidyl guanidine derivatives having anticancer activity” (University of Southern California, priority 2008, dated 2013).

The structures appear in SMILES notation. Like-named read-outs stand apart in the source and are kept apart here.

The test system of experiment [1] is panel of cancer cell lines. Briefly: MTT cytotoxicity, panel of cancer cell lines (Example 2). The experiment is classed as cell-based. From the text: (§1) Human breast cancer cell lines MDA-MB-435 and SkBr-3 were purchased from the American Type Culture Collection (Manassas, Va.). The HCT116 P53+/+ and HCT116 P53−/− cell lines were kindly provided by Dr. Bert Vogelstein (Johns Hopkins Medical Institutions, Baltimore, Md.). The HEY human ovarian carcinoma cell line was kindly provided by Dr. Louis Dubeau (University of Southern California Norris Cancer Center). Cells were maintained as monolayer cultures in media supplemented with 10% fetal bovine serum (Gemini-Bioproducts, Woodland, Calif.) and 2 mmo/lL-glutamine at 37° C. in a humidified atmosphere of 5% C02. To remove the adherent cells from the flask for passaging and counting, cells were washed with PBS without calcium or magnesium, incubated with a small volume of 0.25% trypsin-EDTA solution (Sigma-Aldrich, St. Louis, Mo.) for 5-10 min, and washed with culture medium and centrifuged. All experiments were performed using cells in exponential growth stage. Cells were routinely checked for mycoplasma contamination using a PCR-based assay (Stratagene, Cambridge, UK).
(§2) Stock solutions (10 mM) of all compounds were prepared in DMSO and stored at −20° C. Further dilutions were made fresh in cell-culture media just prior to cell treatment.
(§3) Cytotoxicity was assessed by a 3-(4,5-dimethylthiazol-2-yl)-2,5-diphenyltetrazolium bromide (MTT) assay as previously described.^23 Cells were seeded in 96-well plates and allowed to attach overnight. Cells were subsequently treated with continuous exposure to the corresponding drug for 72 h. An MTT solution (at a final concentration of 0.5 mg/ml) was added to each well, and cells were incubated for 4 h at 37° C. After removal of the medium, DMSO was added and the absorbance was read at 570 nm. All assays were performed in triplicate. The IC50 was determined for each drug from a plot of log (drug concentration) versus percentage of cells killed.

In a further experiment the test system is HCT116 p53+/+. Nature of the experiment: MTT cytotoxicity assay (Example 2). The experiment is classed as cell-based. The note with it: Homo sapiens.
From the text: as §1, §2, §3
Background: Tetrazolium dyes change colour on reduction, which living cells bring about.

Another experiment deals with MDA-MB-435. Nature of the experiment: MTT cytotoxicity assay (Example 2). It is filed as cell-based. The note with it: Homo sapiens, MDA-MB-435, 72 h.
From the text: as §1, §2, §3

In the next experiment the test system is HCT116 p53−/−. Nature of the experiment: MTT cytotoxicity assay (Example 2). The experiment is classed as cell-based. Conditions: Homo sapiens, HCT-116, 72 h.
From the text: as §1, §2, §3

A further experiment relates to HEY. Nature of the experiment: MTT cytotoxicity assay (Example 2). It is filed as cell-based, human. Conditions: 72 h.
From the text: as §1, §2, §3

The test system of another experiment is SkBr-3. Nature of the experiment: MTT cytotoxicity assay (Example 2). It is filed as cell-based, human.
From the text: as §1, §2, §3

Where [2] appears, read: HCT-116, 72 h, MTT, 72 h, read-out: IC50 Hct116 p53+/+.

`CCOC(=O)C1CCN(Cc2ccc(O)c3ncccc23)CC1` [10-SMD58]: the IC50 in experiment [1] (five cancer cell lines) is below 3500 nM; with HCT116 p53+/+ (HCT-116, p53+/+ cell line, read-out: IC50), below 1000 nM; with MDA-MB-435, 2400 ± 1500 nM; with HCT116 p53−/−, 300 nM; in the experiment with HEY it was 500 nM; in the experiment on SkBr-3 (72 h) it was 3500 ± 500 nM.

Take `Oc1ccc(CN2CCN(Cc3ccccc3)CC2)c2cccnc12` [15-SMD58-8]: the IC50 is 1700 ± 700 nM in the experiment with HCT116 p53+/+ (setting [2]); 5400 ± 700 nM in the experiment with MDA-MB-435; 2500 ± 1600 nM with HCT116 p53−/−; 1800 ± 700 nM in the experiment with HEY (Homo sapiens); 1700 ± 700 nM in the experiment with SkBr-3 (Homo sapiens, SK-BR-3, 72 h).

In the case of `Oc1ccc(CNc2ccc(C(F)(F)F)cc2)c2cccnc12` [18-SMD58-13], the IC50 in the experiment with HCT116 p53+/+ (setting [2]) was found to be 1600 ± 100 nM; in the experiment with MDA-MB-435, 5200 ± 400 nM; in the experiment on HCT116 p53−/−, 2000 ± 100 nM; with HEY (Homo sapiens) it was 1200 ± 100 nM; with SkBr-3 (Homo sapiens, SK-BR-3, 72 h) it was 2800 ± 500 nM.

Take `Cc1cc(C)nc(NC(=N)Nc2ccc(Cl)c(C(F)(F)F)c2)n1` [4-SMD6-8]: the IC50 was below 3000 nM in experiment [1] (certain cancer cell lines); 1600 ± 400 nM in the experiment on HCT116 p53+/+ (setting [2]); 2100 ± 500 nM with HCT116 p53−/−; 2200 ± 300 nM in the experiment with HEY (Homo sapiens); 2500 ± 500 nM in the experiment with SkBr-3 (Homo sapiens, SK-BR-3, 72 h).

As for `COc1cccc(NCc2ccc(O)c3ncccc23)c1` [19-SMD58-14], the IC50 worked out at 1300 ± 900 nM in the experiment with HCT116 p53+/+ (setting [2]); 5000 ± 900 nM in the experiment with MDA-MB-435; 2100 ± 100 nM in the experiment on HCT116 p53−/−; 1900 nM in the experiment on HEY (Homo sapiens); 2900 ± 300 nM in the experiment on SkBr-3 (Homo sapiens, SK-BR-3, 72 h).

Consider `CCC(=O)NC(c1ccc(OC)cc1)c1cc([N+](=O)[O-])c2cccnc2c1O` (stereo not shown) [25-SMD58-26], for which the IC50 in the experiment with HCT116 p53+/+ (setting [2]) was 6800 ± 200 nM; with MDA-MB-435, 7500 nM; with HCT116 p53−/−, 7100 ± 1100 nM; in the experiment on HEY (Homo sapiens), 3200 nM; in the experiment on SkBr-3 (Homo sapiens, SK-BR-3, 72 h) it was above 10000 nM.

Regarding `Cc1cc(C)nc(NC(=N)Nc2ccc(Cl)cc2C(=O)c2ccccc2)n1` [2-SMD6-4], the IC50 in experiment [1] (certain cancer cell lines) was below 3000 nM; in the experiment on HCT116 p53+/+ (setting [2]), 2200 ± 800 nM; in the experiment with MDA-MB-435, above 10000 nM; in the experiment on HCT116 p53−/− it was 2100 ± 100 nM; in the experiment with HEY (Homo sapiens), 2500 ± 400 nM; with SkBr-3 (Homo sapiens, SK-BR-3, 72 h) it was 7400 ± 500 nM.
